# Earlier results, collected in US10188773B2, “Compositions and devices of poly-4-hydroxybutyrate” (Tepha, Inc., priority 2013, dated 2019).
# Conditions: metabolism in the body; Nelson et al. 1981, Sendelbeck et al. 1985
compound,measurement,value
"O=C(O)CCCO [4HB, 4-hydroxybutyric acid]",half-life,approximately 27 minutes
